Measured values taken from ChEMBL document CHEMBL1777731, “Design and synthesis of potent HIV-1 protease inhibitors incorporating hydroxyprolinamides as novel P2 ligands” (Bioorg Med Chem Lett, 2011).

What follows are molecules tested on HIV-1 protease (Human immunodeficiency virus 1) (assay: Inhibition of wild type HIV1 protease expressed in Escherichia coli by fluorometric assay).

| Compound | IC50 [µM] |
| --- | --- |
| CC(C)CN(C[C@@H](O)[C@H](Cc1ccccc1)NC(=O)O[C@H]1CN[C@H](C(N)=O)C1)S(=O)(=O)c1ccc(N)cc1 | 0.0166 |
| CC(C)CN(C[C@@H](O)[C@H](Cc1ccccc1)NC(=O)O[C@H]1CN[C@H](C(=O)NC(C)(C)C)C1)S(=O)(=O)c1ccc(N)cc1 | 10.1 |
| CC(C)CN(C[C@@H](O)[C@H](Cc1ccccc1)NC(=O)O[C@H]1CN[C@H](C(=O)Nc2ccccc2)C1)S(=O)(=O)c1ccc(N)cc1 | 14.8 |
| Cc1ccc(NC(=O)[C@@H]2C[C@@H](OC(=O)N[C@@H](Cc3ccccc3)[C@H](O)CN(CC(C)C)S(=O)(=O)c3ccc(N)cc3)CN2)cc1 | 0.139 |
| CC(C)(C)NC(=O)[C@@H]1CN(Cc2cccnc2)CCN1C[C@@H](O)C[C@@H](Cc1ccccc1)C(=O)N[C@H]1c2ccccc2C[C@H]1O | < 0.01 |

The remaining lines, values ahead:

| IC50 [µM] | Compound |
| --- | --- |
| 0.0154 | COc1ccc(NC(=O)[C@@H]2C[C@@H](OC(=O)N[C@@H](Cc3ccccc3)[C@H](O)CN(CC(C)C)S(=O)(=O)c3ccc(N)cc3)CN2)cc1 |
| 13 | COc1ccccc1NC(=O)[C@@H]1C[C@@H](OC(=O)N[C@@H](Cc2ccccc2)[C@H](O)CN(CC(C)C)S(=O)(=O)c2ccc(N)cc2)CN1 |
| 15.2 | COc1cccc(NC(=O)[C@@H]2C[C@@H](OC(=O)N[C@@H](Cc3ccccc3)[C@H](O)CN(CC(C)C)S(=O)(=O)c3ccc(N)cc3)CN2)c1 |
| 11.8 | COc1ccc(OC)c(NC(=O)[C@@H]2C[C@@H](OC(=O)N[C@@H](Cc3ccccc3)[C@H](O)CN(CC(C)C)S(=O)(=O)c3ccc(N)cc3)CN2)c1 |
| 10.1 | COc1cc(NC(=O)[C@@H]2C[C@@H](OC(=O)N[C@@H](Cc3ccccc3)[C@H](O)CN(CC(C)C)S(=O)(=O)c3ccc(N)cc3)CN2)cc(OC)c1OC |
